Measurements reported in patent publication US7928140B2, “Benzothiazole PI3 kinase modulators for cancer treatment” (Amgen Inc., priority 2007, dated 2011).

Tests used:
[1] = target: T1, PI3K α (Homo sapiens, UniProt P42336); experiment: In vitro PI3 kinase enzyme assay (alpha), ATP loss, bioluminescence; format: biochemical; conditions: read-out: PI3Kα ATP loss IC50;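 also: purified p110α/p85 heterodimer acting on PtdIns(4,5)P2 at room temperature, remaining ATP read by luminescence, inhibition scaled between compound-free wells with and without enzyme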
T1 construct: Full length p110 subunits of PI3K α, β and δ, N-terminally labeled with polyHis tag; polyHis (N); made in house; host or cells: Sf9 insect cells (baculovirus)
T1 sequence (P42336 whole entry, species assumed): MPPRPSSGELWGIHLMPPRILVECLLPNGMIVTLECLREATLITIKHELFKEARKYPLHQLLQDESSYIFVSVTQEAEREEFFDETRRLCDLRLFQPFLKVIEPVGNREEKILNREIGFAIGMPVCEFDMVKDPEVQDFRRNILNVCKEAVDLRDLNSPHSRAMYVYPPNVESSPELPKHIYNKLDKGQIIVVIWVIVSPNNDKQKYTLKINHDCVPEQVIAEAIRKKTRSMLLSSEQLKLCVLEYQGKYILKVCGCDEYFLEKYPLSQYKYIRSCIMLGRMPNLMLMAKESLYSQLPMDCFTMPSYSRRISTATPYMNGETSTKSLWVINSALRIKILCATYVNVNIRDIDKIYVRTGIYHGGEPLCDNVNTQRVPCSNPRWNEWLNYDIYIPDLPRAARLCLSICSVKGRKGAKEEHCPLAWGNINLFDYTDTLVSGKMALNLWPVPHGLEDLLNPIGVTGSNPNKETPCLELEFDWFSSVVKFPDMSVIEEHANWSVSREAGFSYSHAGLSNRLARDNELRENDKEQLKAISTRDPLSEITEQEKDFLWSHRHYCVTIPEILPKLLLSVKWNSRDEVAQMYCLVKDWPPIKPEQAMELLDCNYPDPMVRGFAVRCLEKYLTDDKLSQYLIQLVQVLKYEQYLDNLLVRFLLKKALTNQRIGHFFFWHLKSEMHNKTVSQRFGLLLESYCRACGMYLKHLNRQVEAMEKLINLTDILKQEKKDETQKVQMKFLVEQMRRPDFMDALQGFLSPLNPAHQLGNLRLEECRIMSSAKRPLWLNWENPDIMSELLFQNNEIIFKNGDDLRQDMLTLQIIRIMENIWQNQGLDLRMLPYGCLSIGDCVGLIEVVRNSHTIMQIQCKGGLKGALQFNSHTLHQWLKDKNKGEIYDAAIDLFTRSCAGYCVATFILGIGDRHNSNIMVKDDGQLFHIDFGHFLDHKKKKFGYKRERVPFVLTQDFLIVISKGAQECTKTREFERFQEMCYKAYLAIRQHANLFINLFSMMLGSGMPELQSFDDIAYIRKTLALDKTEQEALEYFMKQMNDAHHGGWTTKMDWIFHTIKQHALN
T1 sequence (P27986 whole entry partner, species assumed): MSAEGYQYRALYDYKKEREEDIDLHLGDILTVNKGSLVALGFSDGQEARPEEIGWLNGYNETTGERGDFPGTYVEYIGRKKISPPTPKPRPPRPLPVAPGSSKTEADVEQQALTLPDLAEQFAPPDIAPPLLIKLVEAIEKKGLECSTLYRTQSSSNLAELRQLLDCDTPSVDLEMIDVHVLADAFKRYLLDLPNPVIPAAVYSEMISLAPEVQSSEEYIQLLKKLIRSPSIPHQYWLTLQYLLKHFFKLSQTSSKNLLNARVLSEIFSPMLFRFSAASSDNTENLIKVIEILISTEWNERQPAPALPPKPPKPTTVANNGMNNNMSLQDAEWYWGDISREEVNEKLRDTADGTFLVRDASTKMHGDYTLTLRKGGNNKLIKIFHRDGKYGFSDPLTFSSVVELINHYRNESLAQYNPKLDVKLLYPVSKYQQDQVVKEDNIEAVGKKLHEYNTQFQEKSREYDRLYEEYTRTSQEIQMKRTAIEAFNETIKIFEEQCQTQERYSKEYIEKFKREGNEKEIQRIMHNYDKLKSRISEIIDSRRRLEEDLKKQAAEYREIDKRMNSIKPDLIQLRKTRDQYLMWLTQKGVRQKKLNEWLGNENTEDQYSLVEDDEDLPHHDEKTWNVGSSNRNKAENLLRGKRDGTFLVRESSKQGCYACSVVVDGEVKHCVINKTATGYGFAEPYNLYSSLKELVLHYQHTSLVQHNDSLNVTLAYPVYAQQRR
Method: Full length p110 subunits of PI3K α, β and δ, N-terminally labeled with polyHis tag, were co-expressed with p85 in baculovirus expression vectors in sf9 insect cells. P110/p85 heterodimers were purified by sequential Ni-NTA, Q-HP, and Superdex-100 chromatography. Purified α, β and δ isozymes were stored at −20° C. in 20 mM Tris, pH 8, 0.2M NaCl, 50% glycerol, 5 mM DTT, 2 mM Na cholate.
PI3K enzyme assays (alpha, beta, delta and gamma) were performed in 25 mL with the above final concentrations of components in white polypropylene plates (Costar catalogue #3355). Phosphatidyl inositol phosphoacceptor, PtdIns(4,5)P2 (eg. P4508) was obtained from Echelon Biosciences. The ATPase activity of the alpha and gamma isozymes was not greatly stimulated by PtdIns(4,5)P2 under these conditions and was therefore omitted from the assay of these isozymes. Test compounds were dissolved in DMSO and diluted with three-fold serial dilutions. The compound in DMSO (1 μL) was added per test well, and the inhibition relative to reactions containing no compound, with and without enzyme was determined. After assay incubation at RT, the reaction was stopped and residual ATP determined by addition of an equal volume of a commercial ATP bioluminescence kit (Perkin Elmer EasyLite) according to the manufacturer's instructions, and detected using an Analyst GT luminometer.

[2] = target: T2, PI3K β (Homo sapiens, UniProt P42338); experiment: In vitro PI3 kinase enzyme assay (beta), ATP loss, bioluminescence; format: biochemical; conditions: read-out: PI3Kβ ATP loss IC50;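 also: purified p110β/p85 heterodimer with PtdIns(4,5)P2 as acceptor, incubated at room temperature, leftover ATP read by luminescence, inhibition scaled to compound-free wells with and without enzyme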
T2 construct: Full length p110 subunits of PI3K α, β and δ, N-terminally labeled with polyHis tag; polyHis (N); made in house; host or cells: Sf9 insect cells (baculovirus)
T2 sequence (P42338 whole entry): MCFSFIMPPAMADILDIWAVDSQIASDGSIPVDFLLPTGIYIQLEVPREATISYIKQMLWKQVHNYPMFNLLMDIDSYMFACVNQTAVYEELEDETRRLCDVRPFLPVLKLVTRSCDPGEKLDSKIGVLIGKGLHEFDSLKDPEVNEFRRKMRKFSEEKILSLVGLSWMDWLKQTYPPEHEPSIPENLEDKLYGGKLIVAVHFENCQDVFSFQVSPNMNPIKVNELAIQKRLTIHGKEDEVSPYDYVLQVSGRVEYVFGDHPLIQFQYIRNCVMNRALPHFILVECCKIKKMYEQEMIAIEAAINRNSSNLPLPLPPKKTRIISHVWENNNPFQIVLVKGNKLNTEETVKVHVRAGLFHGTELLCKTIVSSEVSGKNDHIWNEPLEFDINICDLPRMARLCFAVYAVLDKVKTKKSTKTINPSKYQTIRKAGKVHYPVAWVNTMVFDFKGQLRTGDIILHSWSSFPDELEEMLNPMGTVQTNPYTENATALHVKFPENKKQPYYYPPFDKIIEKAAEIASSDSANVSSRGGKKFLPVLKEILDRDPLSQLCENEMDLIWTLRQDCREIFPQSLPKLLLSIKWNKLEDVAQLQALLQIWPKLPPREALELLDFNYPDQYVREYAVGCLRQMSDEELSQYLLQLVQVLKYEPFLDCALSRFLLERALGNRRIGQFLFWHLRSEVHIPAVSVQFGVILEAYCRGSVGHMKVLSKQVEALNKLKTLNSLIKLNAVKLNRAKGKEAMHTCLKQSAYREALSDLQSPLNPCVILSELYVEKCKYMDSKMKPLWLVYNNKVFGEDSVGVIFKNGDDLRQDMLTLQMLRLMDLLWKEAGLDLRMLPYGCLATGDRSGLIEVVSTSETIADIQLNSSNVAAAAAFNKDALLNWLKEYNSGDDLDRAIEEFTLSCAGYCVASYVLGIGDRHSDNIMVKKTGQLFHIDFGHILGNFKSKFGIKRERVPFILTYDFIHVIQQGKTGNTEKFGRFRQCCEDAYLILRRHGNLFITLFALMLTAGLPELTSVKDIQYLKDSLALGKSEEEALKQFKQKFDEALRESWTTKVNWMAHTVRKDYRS
T2 sequence (P27986 whole entry partner): as the sequence (P27986 whole entry partner, species assumed) above

Compound | IC50 [1] [nM] | IC50 [2] [nM]
CC(=O)Nc1nc2ccc(-c3ccnc(N(C)S(=O)(=O)c4cccc5cnccc45)n3)cc2s1 [Example 208, N-(6-(2-(N-methylisoquinoline-5-sulfonamido)pyrimidin-4-yl)benzo[d]thiazol-2-yl)acetamide] | 462 | 743
CC(=O)Nc1nc2ccc(-c3ccnc(N(C)S(=O)(=O)c4ccsc4)n3)cc2s1 [Example 209, N-(6-(2-(N-methylthiophene-3-sulfonamido)pyrimidin-4-yl)benzo[d]thiazol-2-yl)acetamide] | 185 | 855
CC(=O)Nc1nc2ccc(-c3ccnc(N(C)S(=O)(=O)c4cn(C)cn4)n3)cc2s1 [Example 211, N-(6-(2-(N,1-dimethyl-1H-imidazole-4-sulfonamido)pyrimidin-4-yl)benzo[d]thiazol-2-yl)acetamide] | 929 | 3930
CC(=O)Nc1nc2ccc(-c3ccnc(N(C)S(=O)(=O)c4ccc(C)cc4)c3)cc2s1 [Example 215, N-(6-(2-(N,4-dimethylphenylsulfonamido)pyridin-4-yl)benzo[d]thiazol-2-yl)acetamide] | 438 | 450
CC(=O)Nc1nc2ccc(-c3cncc(N(C)S(=O)(=O)c4ccc(C(F)(F)F)cc4)c3)cc2s1 [Example 218, N-(6-(5-(N-methyl-4-(trifluoromethyl)phenylsulfonamido)pyridin-3-yl)benzo[d]thiazol-2-yl)acetamide] | 1050 | 8270
CC(=O)Nc1nc2ccc(-c3cncc(N(C)S(=O)(=O)c4ccc(F)cc4)c3)cc2s1 [Example 219, N-(6-(5-(4-fluoro-N-methylphenylsulfonamido)pyridin-3-yl)benzo[d]thiazol-2-yl)acetamide] | 375 | 2930
CC(=O)Nc1nc2ccc(-c3cncc(N(C)S(=O)(=O)c4ccc(Cl)cc4)c3)cc2s1 [Example 220, N-(6-(5-(4-chloro-N-methylphenylsulfonamido)pyridin-3-yl)benzo[d]thiazol-2-yl)acetamide] | 539 | 3330
CC(=O)Nc1nc2ccc(-c3cccc(N(C)S(=O)(=O)c4ccccc4F)n3)cc2s1 [Example 226, N-(6-(6-(2-fluoro-N-methylphenylsulfonamido)pyridin-2-yl)benzo[d]thiazol-2-yl)acetamide] | 161 | 576
CC(=O)Nc1nc2ccc(-c3cncc(OCCN4CCCC4=O)c3)cc2s1 [Example 229, N-(6-(5-(2-(2-oxopyrrolidin-1-yl)ethoxy)pyridin-3-yl)benzo[d]thiazol-2-yl)acetamide] | 1080 | 15000
CC(=O)Nc1nc2ccc(-c3cncc(OCCN4CCOCC4)c3)cc2s1 [Example 230, N-(6-(5-(2-morpholinoethoxy)pyridin-3-yl)benzo[d]thiazol-2-yl)acetamide] | 2790 | 19300
CC(=O)Nc1nc2ccc(-c3cncc(OC(C)CN4CCOCC4)c3)cc2s1 (stereo not drawn) [Example 231, N-(6-(5-(1-morpholinopropan-2-yloxy)pyridin-3-yl)benzo[d]thiazol-2-yl)acetamide] | 637 | 15700
CC(=O)Nc1nc2ccc(-c3cncc(OCCN4CCOC4=O)c3)cc2s1 [Example 232, N-(6-(5-(2-(2-oxooxazolidin-3-yl)ethoxy)pyridin-3-yl)benzo[d]thiazol-2-yl)acetamide] | 837 | 7440
CC(=O)Nc1nc2ccc(-c3cncc(OCCN4CCCCC4)c3)cc2s1 [Example 233, N-(6-(5-(2-(piperidin-1-yl)ethoxy)pyridin-3-yl)benzo[d]thiazol-2-yl)acetamide] | 4140 | 11900
CC(=O)Nc1nc2ccc(-c3cncc(OCCN4CCCCCC4)c3)cc2s1 [Example 234, N-(6-(5-(2-(azepan-1-yl)ethoxy)pyridin-3-yl)benzo[d]thiazol-2-yl)acetamide] | 2490 | 9980
CCOc1ccc(-c2ccc3nc(NC(C)=O)sc3c2)cn1 [Example 243, N-(6-(6-ethoxypyridin-3-yl)benzo[d]thiazol-2-yl)acetamide] | 156 | > 40000
COc1cc(C)c(-c2ccc3nc(NC(C)=O)sc3c2)cn1 [Example 244, N-(6-(6-methoxy-4-methylpyridin-3-yl)benzo[d]thiazol-2-yl)acetamide] | 688 | 2990
COc1cc(Cl)ncc1-c1ccc2nc(NC(C)=O)sc2c1 [Example 246, N-(6-(6-chloro-4-methoxypyridin-3-yl)benzo[d]thiazol-2-yl)acetamide] | 256 | 12400
CC(=O)Nc1nc2ccc(-c3cnccc3OC(F)F)cc2s1 [Example 248, N-(6-(4-(difluoromethoxy)pyridin-3-yl)benzo[d]thiazol-2-yl)acetamide] | 3840 | 17100
CC(=O)Nc1nc2ccc(-c3ccc(OC(F)F)nc3)cc2s1 [Example 249, N-(6-(6-(difluoromethoxy)pyridin-3-yl)benzo[d]thiazol-2-yl)acetamide] | 717 | 8110
CC(=O)Nc1nc2ccc(-c3cnc(OC(F)F)cc3C)cc2s1 [Example 250, N-(6-(6-(difluoromethoxy)-4-methylpyridin-3-yl)benzo[d]thiazol-2-yl)acetamide] | 11900 | 27500
CC(=O)Nc1nc2ccc(-c3cnccc3CO)cc2s1 [Example 251, N-(6-(4-(hydroxymethyl)pyridin-3-yl)benzo[d]thiazol-2-yl)acetamide] | 1910 | > 40000

Second part, the compound after the results:

IC50 [1] [nM] | IC50 [2] [nM] | Compound
2920 | 45000 | CC(=O)Nc1nc2ccc(-c3cncc(OCCN4CCC(C)(C)C4=O)c3)cc2s1 [Example 252]
1540 | 45600 | CC(=O)Nc1nc2ccc(-c3cncc(OCCN4CCC(C)C4=O)c3)cc2s1 (stereo not drawn) [Example 253]
1180 | 24100 | CC(=O)Nc1nc2ccc(-c3cncc(OCCN4CCC(F)(F)C4=O)c3)cc2s1 [Example 254]
794 | > 40000 | CC(=O)Nc1nc2ccc(-c3cncc(OCCN4CCC(F)C4=O)c3)cc2s1 (stereo not drawn) [Example 255]
1940 | > 40000 | CC(=O)Nc1nc2ccc(-c3ccnc(N4CCCCC4)n3)cc2s1 [Example 263, N-(6-(2-(piperidin-1-yl)pyrimidin-4-yl)benzo[d]thiazol-2-yl)acetamide]
2490 | > 40000 | CC(=O)Nc1nc2ccc(-c3ccnc(Nc4ccccn4)n3)cc2s1 [Example 264, N-(6-(2-(pyridin-2-ylamino)pyrimidin-4-yl)benzo[d]thiazol-2-yl)acetamide]
2600 | 40800 | CC(=O)Nc1nc2ccc(-c3ccnc(NN4CCCCC4)n3)cc2s1 [Example 265, N-(6-(2-(piperidin-1-ylamino)pyrimidin-4-yl)benzo[d]thiazol-2-yl)acetamide]
115 | 2070 | CN(C)c1cc(-c2ccc3nc(NC(=O)NCCN4CCOCC4)sc3c2)cnc1Cl [Example 273, 1-(6-(6-chloro-5-(dimethylamino)pyridin-3-yl)benzo[d]thiazol-2-yl)-3-(2-morpholinoethyl)urea]
1720 | 29900 | CN(C)c1cc(-c2ccc3nc(NS(C)(=O)=O)sc3c2)cnc1Cl [Example 276, N-(6-(6-chloro-5-(dimethylamino)pyridin-3-yl)benzo[d]thiazol-2-yl)methanesulfonamide]
2190 | 4800 | CC(=O)Nc1nc2ccc(-c3cnc(Cl)c(N(C(=O)OC(C)(C)C)C(=O)OC(C)(C)C)c3)cc2s1 [Example 277, Bis(tert-butyl) 5-(2-acetamidobenzo[d]thiazol-6-yl)-2-chloropyridin-3-ylcarbamate]
111 | 747 | CC(=O)Nc1nc2ccc(-c3cnc(Cl)c(OC(C)C#N)c3)cc2s1 (stereo not drawn) [Example 290, N-(6-(6-chloro-5-(1-cyanoethoxy)pyridin-3-yl)benzo[d]thiazol-2-yl)acetamide]
983 | 3790 | CC(=O)Nc1nc2ccc(-c3cc(OC(C)C#N)cnc3Cl)cc2s1 (stereo not drawn) [Example 291, N-(6-(2-chloro-5-(1-cyanoethoxy)pyridin-3-yl)benzo[d]thiazol-2-yl)acetamide]
164 | 2080 | COCCOCOc1cc(-c2ccc3nc(NC(C)=O)sc3c2)cnc1Cl [Example 292, N-(6-(6-chloro-5-((2-methoxyethoxy)methoxy)pyridin-3-yl)benzo[d]thiazol-2-yl)acetamide]
211 | > 40000 | COCCOCOc1cc(-c2ccc3nc(NC(C)=O)sc3c2)cnc1C(F)(F)F [Example 293, N-(6-(5-((2-methoxyethoxy)methoxy)-6-(trifluoromethyl)pyridin-3-yl)benzo[d]thiazol-2-yl)acetamide]
16.3 | 29.2 | COc1ccc(S(=O)(=O)Nc2cc(-c3ccc4nc(NC(=O)C5CCCCC5)sc4c3)cnc2Cl)cc1 [Example 304, N-(6-(6-chloro-5-(((4-methoxyphenyl)sulfonyl)amino)-3-pyridinyl)-1,3-benzothiazol-2-yl)cyclohexanecarboxamide]
58.9 | 224 | COc1ccc(S(=O)(=O)Nc2cc(-c3ccc4nc(NC(C)C)sc4c3)cnc2Cl)cc1 [Example 305, N-(2-chloro-5-(2-((1-methylethyl)amino)-1,3-benzothiazol-6-yl)-3-pyridinyl)-4-methoxybenzenesulfonamide]
104 | 411 | COc1ccc(S(=O)(=O)Nc2cc(-c3ccc4nc(NCC5CCCCC5)sc4c3)cnc2Cl)cc1 [Example 306, N-(2-chloro-5-(2-((cyclohexylmethyl)amino)-1,3-benzothiazol-6-yl)-3-pyridinyl)-4-methoxybenzenesulfonamide]
965 | 2940 | CC(C)(C)Nc1cc(-c2ccc3nc(N)sc3c2)cnc1Cl [Example 315, 6-(5-(tert-butylamino)-6-chloro-3-pyridinyl)-1,3-benzothiazol-2-amine]
